Among the data in EP4775568A1, “NOVEL COMPOUND AND USE THEREOF FOR TREATING PSORIASIS” (Gwangju Institute of Science and Technology, priority 2023, dated 2025) are IC50 and inhibition values, retold here.

The structures appear in SMILES notation. pIC50: −log10 of the molar value. Where only a bound is given, the exact number is not on record here.

One assay concerns the target T1, CMKLR1 (Homo sapiens, UniProt Q99788).
T1 construct: expressed in transfected cells; host or cells: CHO-K1 cells expressing Gα-16 (CHO-Ga16-CMKLR1)
T1 sequence (Q99788 1-373): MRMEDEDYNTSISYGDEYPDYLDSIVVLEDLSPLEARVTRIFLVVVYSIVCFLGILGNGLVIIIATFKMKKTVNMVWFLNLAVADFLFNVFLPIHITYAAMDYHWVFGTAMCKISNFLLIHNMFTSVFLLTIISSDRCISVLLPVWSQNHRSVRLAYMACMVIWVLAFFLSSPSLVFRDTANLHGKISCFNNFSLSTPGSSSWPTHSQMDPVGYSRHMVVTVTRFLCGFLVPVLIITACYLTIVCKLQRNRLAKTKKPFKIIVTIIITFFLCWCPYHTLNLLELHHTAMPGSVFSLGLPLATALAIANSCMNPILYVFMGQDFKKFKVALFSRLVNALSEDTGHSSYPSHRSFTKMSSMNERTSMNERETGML
In words: Calcium mobilization assay (CHO-Ga16-CMKLR1 cells, chemerin-9 induced signal). As to conditions: Table 2, IC50 class, calcium signal induced by 2.5 nM chemerin-9. In kind it is cell-based. The procedure:
To establish a CMKLR1 calcium mobilization cell evaluation system, CHO-K1 cells expressing Gα-16 were transfected with pcDNA3.1-derived human CMKLR1-expressing plasmids using Lipofectamine 2000 (Invitrogen, Waltham, Massachusetts, USA). […] The established cell line (CHO-Ga16-CMKLR1) was cultured in F-12 medium (Invitrogen) supplemented with 10% (v/v) fetal bovine serum (FBS; Invitrogen), 0.5 mg/mL geneticin, 0.2 mg/mL hygromycin B (Clontech), and 1% (v/v) antibiotic-antimycotic solution (Invitrogen) under 5% CO2 at 37°C.
100 µL/well was added to a 96-well plate (Corning) and incubated for 24 h. The buffer solution was prepared by adding 1 M HEPES solution to Hanks' Balanced Salt Solution (HBSS) (Invitrogen) and adjusting the pH to 7.4 by dropwise addition of 1 M NaOH.
The fluorescent dye solution was prepared using the buffer provided with the Calcium 5 Assay Kit (Molecular Devices). 40 µL/well of dye solution was added to each well and incubated at 37°C in a 5% CO2 atmosphere for 30 min. […] The final DMSO concentration was adjusted to 2%. 40 µL of each compound solution was added to the well and incubated for 30 min. […] Prism 5 software (GraphPad) was then used to obtain IC50 values for various compounds. IC50 values were derived based on concentration-response curves, and all experiments were repeated at least three times.
Broadly, the pIC50 is −log10 of the IC50, conventionally taken in molar units. Regarding `CC(CC(=O)O)c1ccc(OCc2ccc3c(-c4cc(C(F)(F)F)cc(C(F)(F)F)c4)nn(C4CCCC4)c3c2)cc1` (stereo not shown) [Compound 22, 3-(4-((3-(3,5-bis(trifluoromethyl)phenyl)-1-cyclopentyl-1H-indazol-6-yl)methoxy)phenyl)butanoic acid], the pIC50 was less than 6.00.
The same measure, in the same setting: under `Cc1ccc(-c2nn(C3CCCC3)c3cc(COc4ccc(C(C)CC(=O)O)cc4)ccc23)cc1` (stereo not shown) [Compound 11, 3-(4-((1-cyclopentyl-3-(p-tolyl)-1H-indazol-6-yl)methoxy)phenyl)butanoic acid] stands less than 6.00; under `CC(CC(=O)O)c1ccc(OCc2ccc3c(-c4ccncc4)nn(C4CCCC4)c3c2)cc1` (stereo not shown) [Compound 23, 3-(4-((1-cyclopentyl-3-(pyridin-4-yl)-1H-indazol-6-yl)methoxy)phenyl)butanoic acid], less than 6.00; under `CC(CC(=O)O)c1ccc(OCc2ccc3c(-c4ccc(OC/C=C/C(=O)O)cc4)nn(C4CCCC4)c3c2)cc1` (stereo not shown) [Compound 28, (E)-4-(4-(6-((4-(1-carboxypropan-2-yl)phenoxy)methyl)-1-cyclopentyl-1H-indazol-3-yl)phenoxy)but-2-enoic acid], less than 6.00.
Same read-out and setting: the figure for `CC(CC(=O)O)c1ccc(OCc2ccc3c(-c4cccc(O)c4)nn(C4CCCC4)c3c2)cc1` (stereo not shown) [Compound 14, 3-(4-((1-cyclopentyl-3-(3-hydroxyphenyl)-1H-indazol-6-yl)methoxy)phenyl)butanoic acid] is less than 6.00.

The same assay, now with this note: Table 3, IC50 class, calcium signal induced by 2.5 nM chemerin-9.
In the case of `CC(CC(=O)O)c1ccc(OCc2ccc3c(-c4cc(Cl)nc(Cl)c4)nn(C4CCCC4)c3c2)cc1` (stereo not shown) [Compound 33, 3-(4-((1-cyclopentyl-3-(2,6-dichloropyridin-4-yl)-1H-indazol-6-yl)methoxy)phenyl)butanoic acid], the pIC50 was less than 6.00.
Still for that read-out and setting: the figure for `C[C@@H](CC(=O)O)c1ccc(OCc2ccc3c(-c4ccc(O)cc4Cl)nn(C4CCCC4)c3c2)cc1` [Compound 42, (S)-3-(4-((3-(2-chloro-4-hydroxyphenyl)-1-cyclopentyl-1H-indazol-6-yl)methoxy)phenyl)butanoic acid] is 6.00 to 7.00.
On the same count and under the same terms, the figure for `C[C@@H](CC(=O)O)c1ccc(OCc2ccc3c(-c4ccc(O)c(O)c4)nn(C4CCCC4)c3c2)cc1` [Compound 38] is less than 6.00; for `C[C@@H](CC(=O)O)c1ccc(OCc2ccc3c(-c4cc(Cl)c(O)cc4Cl)nn(C4CCCC4)c3c2)cc1` [Compound 46, (S)-3-(4-((1-cyclopentyl-3-(2,5-dichloro-4-hydroxyphenyl)-1H-indazol-6-yl)methoxy)phenyl)butanoic acid] it is 6.00 to 7.00.
Still for that read-out and setting: under `C[C@@H](CC(=O)O)c1ccc(OCc2ccc3c(-c4cc(Cl)c(O)c(Cl)c4)nn(C4CCCC4)c3c2)cc1` [Compound 44, (S)-3-(4-((1-cyclopentyl-3-(3,5-dichloro-4-hydroxyphenyl)-1H-indazol-6-yl)methoxy)phenyl)butanoic acid] stands 6.00 to 7.00.
In the case of `C=CCOc1ccc(-c2nn(C3CCCC3)c3cc(COc4ccc(C(C)CC(=O)O)cc4)ccc23)cc1` (stereo not shown) [Compound 30, 3-(4-((3-(4-(allyloxy)phenyl)-1-cyclopentyl-1H-indazol-6-yl)methoxy)phenyl)butanoic acid], the negative-log IC50 (pIC50) was 6.00 to 7.00.
As for `C[C@@H](CC(=O)O)c1ccc(OCc2ccc3c(-c4ccc(C(=O)O)cc4)nn(C4CCCC4)c3c2)cc1` [Compound 51, (S)-4-(6-((4-(1-carboxypropan-2-yl)phenoxy)methyl)-1-cyclopentyl-1H-indazol-3-yl)benzoic acid], the pIC50 is 6.00 to 7.00.

The same assay, now with this note: Table 4, IC50 class, calcium signal induced by 2.5 nM chemerin-9.
As to `C[C@@H](CC(=O)O)c1ccc(OCc2ccc3c(-c4ccc(O)c(F)c4F)nn(C4CCCC4)c3c2)cc1` [Compound 55, (S)-3-(4-((1-cyclopentyl-3-(2,3-difluoro-4-hydroxyphenyl)-1H-indazol-6-yl)methoxy)phenyl)butanoic acid], the pIC50 is less than 6.00.
Still for that read-out and setting: the figure for `Cc1cc(-c2nn(C3CCCC3)c3cc(COc4ccc([C@@H](C)CC(=O)O)cc4)ccc23)cc(C)c1O` [Compound 53, (S)-3-(4-((1-cyclopentyl-3-(4-hydroxy-3,5-dimethylphenyl)-1H-indazol-6-yl)methoxy)phenyl)butanoic acid] is 6.00 to 7.00.
The same measure, in the same setting: under `CC(CC(=O)O)c1ccc(OCc2cnc3c(-c4cc(F)c(O)c(F)c4)nn(C4CCCC4)c3c2)cc1` (stereo not shown) [Compound 74, 3-(4-((1-cyclopentyl-3-(3,5-difluoro-4-hydroxyphenyl)-1H-pyrazolo[4,3-b]pyridin-6-yl)methoxy)phenyl)butanoic acid] stands 6.00 to 7.00; under `CC(CC(=O)O)c1ccc(OCc2cnc3c(-c4cc(Cl)c(O)c(Cl)c4)nn(C4CCCC4)c3c2)cc1` (stereo not shown) [Compound 73, 3-(4-((1-cyclopentyl-3-(3,5-dichloro-4-hydroxyphenyl)-1H-pyrazolo[4,3-b]pyridin-6-yl)methoxy)phenyl)butanoic acid], 6.00 to 7.00.
As for `C[C@@H](CC(=O)O)c1ccc(OCc2ccc3c(-c4cccc(CO)c4)nn(C4CCCC4)c3c2)cc1` [Compound 54, (S)-3-(4-((1-cyclopentyl-3-(3-(hydroxymethyl)phenyl)-1H-indazol-6-yl)methoxy)phenyl)butanoic acid], the pIC50 is less than 6.00.
Same read-out and setting: the figure for `C[C@@H](CC(=O)O)c1ccc(OCc2ccc3c(-c4ccc(C(=O)O)cc4F)nn(C4CCCC4)c3c2)cc1` [Compound 52, (S)-4-(6-((4-(1-carboxypropan-2-yl)phenoxy)methyl)-1-cyclopentyl-1H-indazol-3-yl)-3-fluorobenzoic acid] is 6.00 to 7.00.
`CC(=O)Nc1ccc(-c2nn(C3CCCC3)c3cc(COc4ccc(C(C)CC(=O)O)cc4)ccc23)cc1` (stereo not shown) [Compound 60, 3-(4-((3-(4-acetamidophenyl)-1-cyclopentyl-1H-indazol-6-yl)methoxy)phenyl)butanoic acid]: the pIC50 was less than 6.00.

Staying with this assay, now noted: read-out: CMKLR1 activity in CHO cells (% inhibition at 10 µM), 10 µM compound, relative to calcium signal induced by 2.5 nM chemerin-9.
Broadly, the inhibition is the relative decrease from the control value, in per cent. Take `CC(CC(=O)O)c1ccc(OCc2ccc3c(-c4ccccc4)nn(Cc4ccccc4)c3c2)cc1` (stereo not shown) [Compound 85]: the inhibition at 10 µM worked out at 23%.
Same read-out and setting: the figure for `CC(CC(=O)O)c1ccc(OCc2ccc3c(-c4ccccc4)nn(CC4CC4)c3c2)cc1` (stereo not shown) [Compound 81, 3-(4-((1-(cyclopropylmethyl)-3-phenyl-1H-indazol-6-yl)methoxy)phenyl)butanoic acid] is 35%; for `CC(CC(=O)O)c1ccc(OCc2ccc3c(-c4ccccc4)nn(CC4CCCCC4)c3c2)cc1` (stereo not shown) [Compound 83, 3-(4-((1-(cyclohexylmethyl)-3-phenyl-1H-indazol-6-yl)methoxy)phenyl)butanoic acid] it is 28%; for `CC(C)n1nc(-c2ccccc2)c2ccc(COc3ccc(CC(C)(C)C(=O)O)cc3)cc21` [Compound 3, 3-(4-((1-isopropyl-3-phenyl-1H-indazol-6-yl)methoxy)phenyl)-2,2-dimethylpropanoic acid] it is 10%.
Same read-out and setting: the figure for `CC(CC(=O)O)c1ccc(OCc2ccc3c(-c4ccccc4)nn(C(C)C)c3c2)cc1` (stereo not shown) [Compound 7, 3-(4-((1-isopropyl-3-phenyl-1H-indazol-6-yl)methoxy)phenyl)butanoic acid] is 81%; for `CC(CC(=O)O)c1ccc(OCc2ccc3c(-c4ccccc4)nn(C)c3c2)cc1` (stereo not shown) [Compound 77, 3-(4-((1-methyl-3-phenyl-1H-indazol-6-yl)methoxy)phenyl)butanoic acid] it is 24%.
